± gives the standard deviation of the averaged measurements.
Key:
Assay in all cases: level (log10 ratio to DMSO vehicle control); higher = higher biomarker level / cell amount than vehicle control
[1] = compound: C=C(C)C(=O)OCC(F)(F)C(F)(F)C(F)(F)F [2,2,3,3,4,4,4-Heptafluorobutyl methacrylate]; conditions: in DMSO
Description: (§1)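 BioMAP Diversity Plus panel of 12 human primary cell co-culture systems (3C, 4H, LPS, SAg, BT, BF4T, BE3C, CASM3C, HDF3CGF, KF3CT, MyoF, Mphg). Compounds were added 1 h before stimulation and left for 24 h (MyoF 48 h; BT 72 h for soluble read-outs or 6 d for IgG). Biomarkers were read by ELISA, cytotoxicity by SRB, PBMC viability and proliferation by Alamar Blue. Each well value was divided by the mean of 8 DMSO control wells on the same plate and log10 transformed; duplicate blinded samples were tested at 4 concentrations.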

Tetrafluorosuccinic acid = compound: O=C(O)C(F)(F)C(F)(F)C(=O)O [Tetrafluorosuccinic acid]; conditions: in DMSO
Description: as §1

[2] = compound: O=S(=O)(O)CCC(F)(F)C(F)(F)C(F)(F)C(F)(F)F [4:2 Fluorotelomer sulfonic acid]; conditions: in DMSO
Description: as §1

[3] = compound: O=S(=O)(OCC(F)(F)F)C(F)(F)C(F)(F)C(F)(F)C(F)(F)F [2,2,2-Trifluoroethyl perfluorobutanesulfonate]; conditions: in DMSO
Description: as §1

[4] = compound: OCC(F)(F)C(F)(F)C(F)(F)C(F)(F)C(F)(F)C(F)(F)C(F)(F)C(F)(F)CO [1H,1H,10H,10H-Perfluorodecane-1,10-diol]; conditions: in DMSO
Description: as §1

[5] = compound: OCC(F)(F)C(F)(F)C(F)(F)C(F)(F)C(F)(F)C(F)(F)F [6:1 Fluorotelomer alcohol]; conditions: in DMSO
Description: as §1

[6] = compound: OCCC(F)(F)C(F)(F)C(F)(F)C(F)(F)C(F)(F)C(F)(F)C(F)(F)C(F)(F)F [8:2 Fluorotelomer alcohol]; conditions: 6700 nM; in DMSO
Description: as §1

Test System	level (log10) ([1]; 6700 nM)	level (log10) ([1]; 20000 nM)	level (log10) ([1]; 60000 nM)	level (log10) (Tetrafluorosuccinic acid; 6700 nM)	level (log10) (Tetrafluorosuccinic acid; 20000 nM)	level (log10) (Tetrafluorosuccinic acid; 60000 nM)	level (log10) ([2]; 6700 nM)	level (log10) ([2]; 20000 nM)	level (log10) ([2]; 60000 nM)	level (log10) ([3]; 6700 nM)	level (log10) ([3]; 20000 nM)	level (log10) ([3]; 60000 nM)	level (log10) ([4]; 6700 nM)	level (log10) ([4]; 20000 nM)	level (log10) ([4]; 60000 nM)	level (log10) ([5]; 6700 nM)	level (log10) ([5]; 20000 nM)	level (log10) ([5]; 60000 nM)	level (log10) [6]
lMphg:sIL-10	-0.0245 ± 0.028	-0.0155 ± 0.005	-0.0165 ± 0.0035	-0.0085 ± 0.016	-0.0265 ± 0.097	0.0415 ± 0.11	0.015 ± 0.041	-0.0485 ± 0.032	-0.0545 ± 0.0064	0.072 ± 0.0042	0.0465 ± 0.0035	-0.171 ± 0.052	-0.0265 ± 0.06	-0.357 ± 0.27	-1.1	0.0065 ± 0.073	-0.0215 ± 0.013	-0.023 ± 0.0071	-0.17 ± 0.013
BE3C:uPA	-0.005 ± 0.013	0.005 ± 0.011	-0.002 ± 0.025	-0.007 ± 0.0057	-0.016 ± 0.021	-0.003 ± 0.013	-0.001 ± 0.014	0 ± 0.0057	-0.0035 ± 0.0092	-0.001 ± 0.0099	-0.013 ± 0.0014	-0.0135 ± 0.023	-0.008 ± 0.011	-0.0315 ± 0.0021	-0.078	-0.0055 ± 0.0021	-0.005 ± 0.013	0.001 ± 0.0014	-0.0175 ± 0.00071
lMphg:IL-1alpha	0.01 ± 0.0057	0.0245 ± 0.012	0.03 ± 0.034	-0.016 ± 0.0057	-0.015 ± 0.025	-0.0035 ± 0.03	0.026 ± 0.048	0.0125 ± 0.032	0.007 ± 0.021	-0.012 ± 0.0028	-0.0425 ± 0.06	-0.073 ± 0.0014	0.002 ± 0.028	0.0055 ± 0.046	-0.167	0.007 ± 0.04	0.006 ± 0.061	0.001 ± 0.034	-0.0045 ± 0.025
MyoF:Collagen IV	-0.0185 ± 0.019	0.004 ± 0.065	0.014 ± 0.075	0.008	0.003 ± 0.0099	0.0115 ± 0.015	-0.0075 ± 0.00071	-0.037 ± 0.0057	-0.0225 ± 0.025	-0.0175 ± 0.044	-0.014 ± 0.038	0.0205 ± 0.056	-0.0265 ± 0.0035	-0.013 ± 0.0071	0.156	-0.013 ± 0.0014	-0.0335 ± 0.016	0.012 ± 0.02	0.0065 ± 0.0021
lMphg:CXCL8/IL-8	0.037 ± 0.038	0.026 ± 0.021	0.027 ± 0.038	-0.0205 ± 0.0064	-0.025 ± 0.021	-0.0175 ± 0.023	-0.0295 ± 0.043	-0.0215 ± 0.021	0.005 ± 0.031	0.031	0.025 ± 0.018	0.072 ± 0.068	0.03 ± 0.035	0.0055 ± 0.018	-0.19	0.0335 ± 0.016	0.0395 ± 0.035	0.0375 ± 0.0092	0.076 ± 0.024
